Results on 5 molecules are retold here after PMC7240875 (Integrative Cancer Therapies, 2018).

Assay type in all cases: cell-based
Experiment [1] concerns the target T1, NAD(P)H:quinone oxidoreductase-1 (NQO1) (Homo sapiens, UniProt P15559). Put plainly: NQO1 activity. Conditions: KKU100, read-out: % inhibition at 4.55 μM.
In experiment [2] the target is T1, NAD(P)H:quinone oxidoreductase-1 (NQO1). Put plainly: NQO1 activity. Conditions: KKU100, read-out: % inhibition at 4.55 μM. This is another data set of the same source.
For experiment [3] the target is unchanged. As to the kind of experiment: single-concentration NQO1 activity screen. The note with it: read-out: % inhibition at 4.55 μM.

T1 sequence (P15559 whole entry): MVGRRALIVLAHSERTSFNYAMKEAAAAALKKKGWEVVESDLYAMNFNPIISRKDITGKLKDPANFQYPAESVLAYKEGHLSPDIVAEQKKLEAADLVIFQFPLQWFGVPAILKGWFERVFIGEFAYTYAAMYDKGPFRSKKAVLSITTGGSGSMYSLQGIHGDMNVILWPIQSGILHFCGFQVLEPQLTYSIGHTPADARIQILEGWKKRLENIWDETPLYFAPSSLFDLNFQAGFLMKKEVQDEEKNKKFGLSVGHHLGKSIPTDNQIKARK

What is called inhibition is how much of the control response was suppressed. Regarding `O=c1ccc2ccc(O)cc2o1` [umbelliferone], the inhibition at 4.55 µM in experiment [1] was found to be 63.5%.
Consider `O=c1ccc2ccccc2o1` [coumarin], for which, in experiment [2], the inhibition at 4.55 µM amounted to 41.8%.
In the case of `COc1cc2ccc(=O)oc2cc1O` [scopoletin], in experiment [1], the inhibition at 4.55 µM came out at 77.4%.
For the molecule `O=c1cc(-c2ccc(O)c(O)c2)oc2cc(O)cc(O)c12` [luteolin], the inhibition at 4.55 µM in experiment [3] turned out to be 55%.
Turning to `O=c1ccc2cc(O)c(O)cc2o1` [aesculetin], the inhibition at 4.55 µM in experiment [2] was determined as 34.9%.
